Experimental data: patent US12077503B2, “Substituted cyclic amides and their use as herbicides” (FMC CORPORATION, priority 2015, dated 2024)

Columns and labels:
Format in all cases: in vivo
[1] = tested on: Kochia (Kochia scoparia); assay: Test A postemergence; settings: Bassia scoparia, post-emergence, 240 h
Summary of the method: (§1)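 Compounds were formulated in a non-phytotoxic solvent mixture with surfactant and applied as a preemergence directed soil spray after seeding, or sprayed postemergence over plants 2 to 10 cm tall at the one- to two-leaf stage. Evaluation after about 10 d compared treated with untreated controls, using a scale from 0 (no effect) to 100 (complete control).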

[2] = tested on: ryegrass, Italian (Italian ryegrass, Lolium multiflorum); assay: Test A postemergence; settings: Lolium multiflorum, post-emergence, 240 h
Summary of the method: as §1

[3] = tested on: wheat (Triticum aestivum); assay: Test A postemergence; settings: Triticum aestivum, post-emergence, 240 h
Summary of the method: as §1

[4] = tested on: blackgrass (Alopecurus myosuroides); assay: Test A postemergence; settings: Alopecurus myosuroides, post-emergence, 240 h
Summary of the method: as §1

[5] = tested on: ragweed (common ragweed, Ambrosia elatior); assay: Test A postemergence; settings: Ambrosia artemisiifolia, post-emergence, 240 h
Summary of the method: as §1

[6] = tested on: barnyardgrass (Echinochloa crus-galli); assay: Test A postemergence; settings: Echinochloa crus-galli, post-emergence, 240 h
Summary of the method: as §1

[7] = tested on: Galium (catchweed bedstraw, Galium aparine); assay: Test A postemergence; settings: Galium, post-emergence, 240 h
Summary of the method: as §1

[8] = tested on: pigweed (Amaranthus retroflexus); assay: Test A postemergence; settings: Amaranthus retroflexus, post-emergence, 240 h
Summary of the method: as §1

[9] = tested on: corn (Zea mays); assay: Test A postemergence; settings: Zea mays, post-emergence, 240 h
Summary of the method: as §1

[10] = tested on: giant foxtail (Setaria faberii); assay: Test A postemergence; settings: Setaria faberi, post-emergence, 240 h
Summary of the method: as §1

[11] = tested on: Kochia (Kochia scoparia); assay: Test A preemergence; settings: Bassia scoparia, pre-emergence, 240 h, 0 to 100 scale where 0 is no effect and 100 is complete control, read-out: Kochia plant response rating
Summary of the method: as §1

[12] = tested on: ryegrass, Italian (Italian ryegrass, Lolium multiflorum); assay: Test A preemergence; settings: Lolium multiflorum, pre-emergence, 240 h, 0 to 100 scale where 0 is no effect and 100 is complete control, read-out: Ryegrass, Italian plant response rating
Summary of the method: as §1

[13] = tested on: ragweed (common ragweed, Ambrosia elatior); assay: Test A preemergence; settings: Ambrosia artemisiifolia, pre-emergence, 240 h, 0 to 100 scale where 0 is no effect and 100 is complete control, read-out: Ragweed plant response rating
Summary of the method: as §1

[14] = tested on: barnyardgrass (Echinochloa crus-galli); assay: Test A preemergence; settings: Echinochloa crus-galli, pre-emergence, 240 h, 0 to 100 scale where 0 is no effect and 100 is complete control, read-out: Barnyardgrass plant response rating
Summary of the method: as §1

[15] = tested on: pigweed (Amaranthus retroflexus); assay: Test A preemergence; settings: Amaranthus retroflexus, pre-emergence, 240 h, 0 to 100 scale where 0 is no effect and 100 is complete control, read-out: Pigweed plant response rating
[16] = tested on: giant foxtail (Setaria faberii); assay: Test A preemergence; settings: Setaria faberi, pre-emergence, 240 h, 0 to 100 scale where 0 is no effect and 100 is complete control, read-out: Foxtail, Giant plant response rating
Summary of the method: as §1

[17] = tested on: ducksalad (Heteranthera limosa); assay: Test B flooded paddy test; settings: Heteranthera limosa, 250 g ai/ha, Flood; 0 to 100 scale where 0 is no effect and 100 is complete control; read-out: Ducksalad plant response rating
Summary of the method: (§2)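 Evaluation by eye, against controls, occurred 13–15 d post-treatment in a greenhouse, using a 0 (no effect) to 100 (complete control) scale. Application was into the paddy water, 3 cm deep over the soil, on 2-leaf plants.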

[18] = tested on: barnyardgrass (Echinochloa crus-galli); assay: Test B flooded paddy test; settings: Echinochloa crus-galli, 250 g ai/ha, Flood; 0 to 100 scale where 0 is no effect and 100 is complete control; read-out: Barnyardgrass plant response rating
Summary of the method: as §2

[19] = tested on: sedge, umbrella (small-flower umbrella sedge, Cyperus difformis); assay: Test B flooded paddy test; settings: Cyperus difformis, 250 g ai/ha, Flood; 0 to 100 scale where 0 is no effect and 100 is complete control; read-out: Sedge, Umbrella plant response rating
Summary of the method: as §2

[20] = tested on: rice (Oryra sativa); assay: Test B flooded paddy test; settings: Oryza sativa, 250 g ai/ha, Flood; 0 to 100 scale where 0 is no effect and 100 is complete control; read-out: Rice plant response rating
Summary of the method: as §2

[21] = 125 g ai/ha, preemergence, approx. 10 d

`C=C(C)c1ccc([C@H]2CN(C)C(=O)[C@@H]2C(=O)Nc2ccc(F)c(F)c2F)cc1` [Compound 1148] showed a pest or weed control at 125 g/ha ([1]; 125 g ai/ha, postemergence, visual injury on 0 to 100 scale (0 no effect, 100 complete control), approx. 10 d, read-out: Kochia plant response rating) of 0%, a pest or weed control at 31 g/ha ([1]; Postemergence, 31 g ai/ha, visual injury after approx. 10 d, 0 to 100 scale, 0 no effect, 100 complete control, read-out: Plant response rating, Kochia) of 0% and a pest or weed control at 125 g/ha ([2]; 125 g ai/ha, postemergence, visual injury vs untreated controls after approx. 10 d, 0 = no effect, 100 = complete control, read-out: Ryegrass, Italian plant response rating (0 to 100 scale)) of 0%. The pest or weed control at 31 g/ha ([2]; Postemergence, 31 g ai/ha, visual injury after approx. 10 d, 0 to 100 scale, 0 no effect, 100 complete control, read-out: Plant response rating, Ryegrass, Italian) was 0%, the plant injury at 125 g/ha ([3]; 125 g ai/ha, postemergence, visual injury vs untreated controls after approx. 10 d, 0 = no effect, 100 = complete control, read-out: Wheat plant response rating (0 to 100 scale)) was 0% and the plant injury at 31 g/ha ([3]; Postemergence, 31 g ai/ha, visual injury after approx. 10 d, 0 to 100 scale, 0 no effect, 100 complete control, read-out: Plant response rating, Wheat) was 0%. The pest or weed control at 125 g/ha ([4]; 125 g ai/ha, postemergence, visual injury on 0 to 100 scale (0 no effect, 100 complete control), approx. 10 d, read-out: Blackgrass plant response rating) was 20%, the pest or weed control at 31 g/ha ([4]; Postemergence, 31 g ai/ha, visual injury after approx. 10 d, 0 to 100 scale, 0 no effect, 100 complete control, read-out: Plant response rating, Blackgrass) was 0% and the pest or weed control at 125 g/ha ([5]; 125 g ai/ha, postemergence, visual injury vs untreated controls after approx. 10 d, 0 = no effect, 100 = complete control, read-out: Ragweed plant response rating (0 to 100 scale)) was 0%. The pest or weed control at 31 g/ha ([5]; Postemergence, 31 g ai/ha, visual injury after approx. 10 d, 0 to 100 scale, 0 no effect, 100 complete control, read-out: Plant response rating, Ragweed) was 0%, the pest or weed control at 125 g/ha ([6]; 125 g ai/ha, postemergence, visual injury on 0 to 100 scale (0 no effect, 100 complete control), approx. 10 d, read-out: Barnyardgrass plant response rating) was 80% and the pest or weed control at 31 g/ha ([6]; Postemergence, 31 g ai/ha, visual injury after approx. 10 d, 0 to 100 scale, 0 no effect, 100 complete control, read-out: Plant response rating, Barnyardgrass) was 50%. The pest or weed control at 125 g/ha ([7]; 125 g ai/ha, postemergence, visual injury on 0 to 100 scale (0 no effect, 100 complete control), approx. 10 d, read-out: Galium plant response rating) was 40%, the pest or weed control at 31 g/ha ([7]; Postemergence, 31 g ai/ha, visual injury after approx. 10 d, 0 to 100 scale, 0 no effect, 100 complete control, read-out: Plant response rating, Galium) was 0% and the pest or weed control at 125 g/ha ([8]; 125 g ai/ha, postemergence, visual injury vs untreated controls after approx. 10 d, 0 = no effect, 100 = complete control, read-out: Pigweed plant response rating (0 to 100 scale)) was 20%. The pest or weed control at 31 g/ha ([8]; Postemergence, 31 g ai/ha, visual injury after approx. 10 d, 0 to 100 scale, 0 no effect, 100 complete control, read-out: Plant response rating, Pigweed) was 0%, the plant injury at 125 g/ha ([9]; 125 g ai/ha, postemergence, visual injury on 0 to 100 scale (0 no effect, 100 complete control), approx. 10 d, read-out: Corn plant response rating) was 0% and the Corn plant response rating (crop injury, 0 = no effect, 100 = complete kill) at 31 g/ha ([9]; Postemergence, 31 g ai/ha, visual injury after approx. 10 d, 0 to 100 scale, 0 no effect, 100 complete control) was 0%. For the same molecule, the pest or weed control at 125 g/ha ([10]; 125 g ai/ha, postemergence, visual injury on 0 to 100 scale (0 no effect, 100 complete control), approx. 10 d, read-out: Foxtail, Giant plant response rating) was 80%, the pest or weed control at 31 g/ha ([10]; Postemergence, 31 g ai/ha, visual injury after approx. 10 d, 0 to 100 scale, 0 no effect, 100 complete control, read-out: Plant response rating, Foxtail, Giant) was 50% and the pest or weed control at 31 g/ha ([11]; 31 g ai/ha, Preemergence) was 0%. For the same molecule, the pest or weed control at 125 g/ha [11, 21] was 0%, the pest or weed control at 31 g/ha ([12]; 31 g ai/ha, Preemergence) was 0% and the pest or weed control at 125 g/ha [12, 21] was 20%. The pest or weed control at 31 g/ha ([13]; 31 g ai/ha, Preemergence) was 0%, the pest or weed control at 125 g/ha [13, 21] was 0% and the pest or weed control at 31 g/ha ([14]; 31 g ai/ha, Preemergence) was 30%. The pest or weed control at 125 g/ha [14, 21] was 90%, the pest or weed control at 31 g/ha ([15]; 31 g ai/ha, Preemergence) was 0% and the pest or weed control at 125 g/ha [15, 21] was 0%. The pest or weed control at 31 g/ha ([16]; 31 g ai/ha, Preemergence) was 90%, the pest or weed control at 125 g/ha [16, 21] was 90% and the pest or weed control at 250 g/ha [17] was 70%. For the same molecule, the pest or weed control at 250 g/ha [18] was 50%, the pest or weed control at 250 g/ha [19] was 0% and the pest or weed control at 250 g/ha [20] was 60%.
